Test results from publication PMC10120310 (Cell Insight, 2022).

Assays:
[1] = system: oseltamivir-resistant strain (H1N1, H274Y); type: cell-based, H1N1 influenza virus (H274Y)
[2] = system: oseltamivir-resistant strain (H1N1, H274Y); type: cell-based, H1N1 influenza virus (H274Y); remark: listed apart in the source

CCOC(=O)C1=C[C@@H](OC(CC)CC)[C@H](NC(C)=O)[C@@H](N)C1 [OSP, oseltamivir phosphate]
viral NP mRNA level of the resistant strain [1]: no antiviral activity | viral NP protein level of the resistant strain [2]: no antiviral activity
